{"source": "patent US20050049299A1", "about": "“Selective inhibitors of stat-3 activation and uses thereof” (priority 2003, published 2005)", "type_in_all_cases": "cell-based, human", "key": {"STAT1 phosphorylation": {"test_system": "STAT1 phosphorylation", "assay": "IFN-α-inducible STAT1 phosphorylation in U266 cells (Western blot)", "conditions": "50 μM curcumin, IFN-α 10 ng/ml", "protocol": "U266 cells (2×10^6) were treated with the indicated concentrations of curcumin for 1 h, or treated with 50 μM curcumin for the indicated durations and levels of phosphorylated-STAT3 (upper panel) and STAT3 (lower panel) were examined in whole cell extracts by Western Blotting. […] U266 cells (2×10^6) were treated with 50 μM curcumin for indicated durations, and examined for phosphorylated and nonphosphorylated-STAT3, and STAT5. […] U266 cells (2×10^6) were preincubated with curcumin (50 μM) for indicated durations before treatment with IFN-α (10 ng/ml) for additional 30 min and then examined for phosphorylated and nonphosphorylated-STAT1.\nFor detection of STAT proteins, whole-cell extracts were prepared by lysing the curcumin-treated cells in lysis buffer (20 mM Tris, pH 7.4, 250 mM NaCl, 2 mM EDTA, pH 8.0, 0.1% Triton-X100, 0.01 mg/ml aprotinin, 0.005 mg/ml leupeptin, 0.4 mM PMSF, and 4 mM NaVO4). Lysates were then spun at 14000 rpm for 10 min to remove insoluble material, and resolved on a 7.5% gel. After electrophoresis, the proteins were electrotransferred to a nitrocellulose membrane, blocked with 5% nonfat milk, and probed with anti-STAT antibodies (1:1000) overnight at 4° C. The blot was washed, exposed to HRP-conjugated secondary antibodies for 1 h, and finally examined by chemiluminescence (ECL, Amersham Pharmacia Biotech. Arlington Heights, Ill.). […]"}, "MM.1 cells": {"test_system": "MM.1 cells", "assay": "IL-6-induced proliferation of MM.1 cells", "conditions": "curcumin 10 μM, 48 h, serum-free", "protocol": "FIGS. 7A-B show& that IL-6 induces proliferation of human multiple myeloma cells and curcumin inhibits it. […] Cell proliferation assays were performed as described below. Results are shown as mean (±s.d.) of percent [^3H] thymidine incorporation or percent proliferation by MTT of triplicate cultures compared to the untreated control.\nThe antiproliferative effects of curcumin against different multiple myeloma cell lines were determined by the MTT dye uptake method as described earlier (28). Briefly, the cells (5000/well) were incubated in triplicate in a 96-well plate in the presence or absence of indicated test samples in a final volume of 0.1 ml for 24 h at 37° C. […] The OD at 570 nm was measured using a 96-well multiscanner autoreader (Dynatech MR 5000), with the extraction buffer serving as blank. Percent cell viability cell viability was calculated using the following formula: Percent cell viability=(OD of the experiment samples/OD of the control)×100.\nThe antiproliferative effects of curcumin were also monitored by the thymidine incorporation method. […] Six hours before the completion of experiment, cells were pulse treated with 0.5 μCi [^3H]thymidine, and the uptake of [^3H]thymidine was monitored using a Matrix-9600 β-counter (Packard Instruments, Downers Grove, Ill.). […]\nWhether curcumin suppresses the proliferative effects of IL-6 was determined."}, "STAT3 phosphorylation": {"test_system": "STAT3 phosphorylation", "assay": "IL-6-inducible STAT3 phosphorylation in RPMI 8226 cells (Western blot)", "protocol": "FIGS. 3A-C show& that IL-6 induces STAT3 phosphorylation in human multiple myeloma RPMI 8226 cells and curcumin inhibits it. […] U266, RPMI 8226, MM.1S, MM.1R and OCl cells (2×10^6) were lysed, and 30 μg of whole-cell extracts were resolved on 7.5% SDS-PAGE, electrotransferred to a nitrocellulose membrane, and probed for phosphorylated-STAT3 (upper panel) and STAT3 (lower panel). […] Thirty micrograms of whole cell extracts were resolved on 7.5% SDS-PAGE, electrotransferred to a nitrocellulose membrane, and probed for the phosphorylated-STAT3 (upper panel) and stripped and reprobed for STAT3 (middle panel) and β-actin (lower panel).\nFor detection of STAT proteins, whole-cell extracts were prepared by lysing the curcumin-treated cells in lysis buffer (20 mM Tris, pH 7.4, 250 mM NaCl, 2 mM EDTA, pH 8.0, 0.1% Triton-X100, 0.01 mg/ml aprotinin, 0.005 mg/ml leupeptin, 0.4 mM PMSF, and 4 mM NaVO4). Lysates were then spun at 14000 rpm for 10 min to remove insoluble material, and resolved on a 7.5% gel. After electrophoresis, the proteins were electrotransferred to a nitrocellulose membrane, blocked with 5% nonfat milk, and probed with anti-STAT antibodies (1:1000) overnight at 4° C. The blot was washed, exposed to HRP-conjugated secondary antibodies for 1 h, and finally examined by chemiluminescence (ECL, Amersham Pharmacia Biotech. Arlington Heights, Ill.).\nSince IL-6 is a growth factor for multiple myeloma and induces STAT3 phosphorylation (5, 6, 15), whether curcumin could inhibit IL-6-induced STAT3 phosphorylation was examined. […] IL-6 induced phosphorylation of STAT3 as early as 5 min and began to decline at 60 minutes (FIG. 3B). RPMI 8226 cells were then incubated with curcumin for different times and examined for IL-6-inducible STAT3 phosphorylation.\nExposure of cells to curcumin for 4 hours was sufficient to completely suppress IL-6-induced STAT3 phosphorylation. Curcumin alone had no effect on STAT3 phosphorylation in these cells (data not shown)."}, "multiple myeloma cells": {"test_system": "multiple myeloma cells", "assay": "Proliferation of multiple myeloma cells, curcumin vs AG490 (data not shown)", "conditions": "100 μM, 24 hours (data not shown)"}}, "data": [{"smiles": "COc1cc(/C=C/C(=O)CC(=O)/C=C/c2ccc(O)c(OC)c2)ccc1O", "note": "[curcumin, diferuloylmethane]", "values": [{"measurement": "IFN-α-induced STAT1 phosphorylation", "setting": "STAT1 phosphorylation", "result": "suppressed the phosphorylation in a time-dependent manner"}, {"measurement": "IL-6-induced cell proliferation in MM.1 cells", "setting": "MM.1 cells", "result": "inhibited IL-6-induced cell proliferation"}, {"measurement": "exposure sufficient to completely suppress IL-6-induced STAT3 phosphorylation", "setting": "STAT3 phosphorylation; 50 μM curcumin, IL-6 10 ng/ml 10 min", "result": 4, "unit": "h"}, {"measurement": "effect of curcumin alone on STAT3 phosphorylation", "setting": "STAT3 phosphorylation; without IL-6 (data not shown)", "result": "no effect"}, {"measurement": "proliferation of multiple myeloma cells", "setting": "multiple myeloma cells", "result": "completely suppressed"}]}]}
